# Reference: patent US20030207819A1, “Compositions and methods for treating inflammatory connective tissue diseases” (priority 2002, published 2003)
# Entries after “also recorded” stand apart in the source; their conditions may differ.
# What was measured:
# Format in all cases: in vivo, human
# [1] = tested on: patient with chondrocalcinosis leading to pseudorheumatoid pseudogout syndrome; experiment: Example 3: clinical observation of patient on clarithromycin; settings: person; clarithromycin 500 mg b.i.d. begun two weeks prior for pneumonia
# Method: A patient has severe ditTuse generalized chondrocalcinosis leading to pseudorheumatoid pseudogout syndrome. Given the intensity of their chronic synovitis and the lack of response to steroids as well as NSAIDs, they were put on methotrexate, 10 mg/week and infliximab ([…]®, Centocor, Inc.), after which they did satisfactorily. The patient had bilateral total knee replacements and, subsequently was taken off the infliximab when they developed a knee infection postoperatively. The patient continued to have diffuse aches and pains and joint swelling. When seen in the office on Mar. 12, 2002, they spontaneously asked whether the medicine they were taking for their pneumonia could have an effect on their arthritis. Apparently they had begun clarithromycin 500 mg b.i.d. for their pneumonia two weeks prior and said they had “never felt as well” with respect to their joint symptoms as they had during the subsequent several days. They continued to feel much improved and asked if they could stay on the antibiotic.
# [2] = tested on: patient with chondrocalcinosis leading to pseudorheumatoid pseudogout syndrome; experiment: Example 4: clarithromycin re-challenge of Example 3 patient, symptoms and laboratory assessments
# Method: Subsequent to the observations made in Example 3, the patient was re-challenged with clarithromycin, and re-evaluated as to symptomatic efficiency. In parallel with clinical observations, laboratory assessments including erythrocyte sedimentation rate, C-reactive 1 5 protein, and serum interleukins 1 and 6 were measured. The laboratory results are illustrated in Table 2.
# On Jun. 15, 2002 the patient from Example 3 underwent a right pneumonectomy for treatment of recurrent lung cancer. During that hospitalization, clarithromycin was discontinued.
# The patient underwent formal re-challenge with clarithromycin on Aug. 19, 2002 (Table 2). At that time their medications included ibuprofen at 400 mg/day, acetaminophen at 500 mg/as needed, prednisone at 5 mg/daily, CELEXA™ (Forest Pharmaceuticals, Inc.) at […], REMURON® (Organon Inc.) at 7.5 mg/h.s., DURICEF® (Bristol) at 500 mg b.i.d., TIMOPTIC® eye drops (Merck & Co.), and multi-vitamins. […] Clarithromycin at 500 mg b.i.d. was restarted on Aug. 20, 2002. When seen on Aug. […] 19, 2002. […] 28, 2002. On Sep. […] Ibuprofen was decreased to […] on Sep. 5, 2002. On Sep. […] On Sep.
# [3] = tested on: patient with undifferentiated connective tissue disease; experiment: Example 6: clarithromycin trial, VAS and joint assessment; settings: for Patient VAS (Pain): baseline 89; for Practitioner VAS (Global): baseline 60; for Patient VAS (Global): baseline 63
# From the text: A patient, was first seen in September 1999. […] They have used a number of anti-inflammatory agents frequently for therapy.
# On the basis of the findings, including recurrent episodes of arthritis, Raynaud's, and thickening of the hands, connective tissue disease diagnoses such as Mixed Connective Tissue Disease or Progressive Systemic Sclerosis were considered.
# Based on these findings, a diagnosis of Undifferentiated Connective Tissue Disease was made. Therapy was initiated with hydroxychloroquine ([…]®, Sanofi-Synthelabo, Inc.) and a non-steroidal anti-inflammatory agent. They utilized steroid dose packs periodically for symptomatic relief of their peripheral symptoms as well as their neck symptoms.
# On examination, they had symptoms and findings much as before and a diagnosis of Undifferentiated Connective Tissue Disease was made. The patient agreed to undergo a trial with clarithromycin.
# Following screening and baseline evaluations, the patient was begun on clarithromycin (BIAXIN®, Abbott Laboratories).
# 25, 2003 (“Visit 3”), for their first recheck visit.
# When seen for their one month evaluation, the patient had been off steroid medication for approximately ten days.
# Further assessment of their status was made on Apr. 13, 2003 at which time they were now off steroids for almost a one-month period.
# Patient was again seen Apr. 21, 2003 (“Visit Four”), for their formal two-month follow-up on clarithromycin.
# [4] = Aug. 27, 2002, on clarithromycin
# [5] = Oct. 8, 2002, off clarithromycin
# [6] = Sep. 4, 2002, on clarithromycin
# [7] = Sep. 9, 2002, on clarithromycin
# [8] = Sep. 23, 2002, off clarithromycin
# [9] = Visit Four, Apr. 21, 2003, clarithromycin for two months
# [10] = Visit Four, clarithromycin for two months
# [11] = Visit Three, clarithromycin for one month
smiles,measurement,setting,value
"CC[C@H]1OC(=O)[C@H](C)[C@@H](O[C@H]2C[C@@](C)(OC)[C@@H](O)[C@H](C)O2)[C@H](C)[C@@H](O[C@@H]2O[C@H](C)C[C@H](N(C)C)[C@H]2O)[C@](C)(OC)C[C@@H](C)C(=O)[C@H](C)[C@@H](O)[C@]1(C)O [clarithromycin, 6-O-methylerythromycin]",joint symptoms,[1],much improved
same,CPR,[2]; [4],0.74 mg/dL
same,ESR,[2]; [4],18 mm/hr
same,IL-6,[2]; [4],6.8 pg/mL
same,Symptoms,"[2]; Aug. 27, 2002, on clarithromycin 500 mg BID since Aug. 20, 2002, compared to baseline Aug. 19, 2002",had not observed improvement; also recorded: No change
same,CPR,[2]; [5],0.77 mg/dL
same,ESR,[2]; [5],10 mm/hr
same,IL-6,[2]; [5],1.8 pg/mL
same,Symptoms,"[2]; Oct. 8, 2002, off clarithromycin, prednisone 5 mg QD",continued active
same,CPR,[2]; [6],0.78 mg/dL
same,ESR,[2]; [6],10 mm/hr
same,IL-6,[2]; [6],2.5 pg/mL
same,Symptoms,"[2]; Sep. 4, 2002, on clarithromycin, ibuprofen increased to 800 mg/day on Aug. 28, 2002",40% better
same,CPR,[2]; [7],1.06 mg/dL
same,ESR,[2]; [7],11 mm/hr
same,IL-6,[2]; [7],4.5 pg/mL
same,Symptoms,"[2]; Sep. 9, 2002, on clarithromycin, discontinued at this visit, ibuprofen 600 mg/day",No change
same,Symptoms,"[2]; Sep. 16, 2002, off clarithromycin, ibuprofen 400 mg/day",Worse
same,IL-6,"[2]; Sep. 16, 2002, one week following clarithromycin discontinuation, baseline 2.2",33.1 pg/mL
same,ESR,[2]; [8],37 mm/hr
same,IL-6,[2]; [8],6.4 pg/mL
same,Symptoms,[2]; [8],continued worsening; also recorded: Worse
same,CPR,"[2]; Sep. 23, 2002, off clarithromycin, baseline 0.85",3.51 mg/dL
same,joints,[2]; clarithromycin begun again as antimicrobial therapy after pneumonectomy,once again improved
same,arthritis symptoms,"[2]; five to six days following discontinuation of clarithromycin, hospitalization June 2002",significantly worse
same,ESR,"[2]; off clarithromycin, increase from 11 mm at baseline, date not given in the text",37 mm
same,change in IL-1,"[2]; over the re-challenge Aug. 19 to Oct. 8, 2002",No significant change
same,side reaction,"[3]; Apr. 13, 2003, on clarithromycin",bad taste
same,"pain VAS, patient rating","[3]; Apr. 13, 2003, on clarithromycin, off steroids almost one month",25 mm
same,patient statement of improvement,[3]; [9],80% better
same,side reaction,[3]; [9],mild bad taste
same,Patient VAS (Pain),[3]; [9],11 mm
same,Practitioner VAS (Global),[3]; [10],4 mm
same,Patient VAS (Global),[3]; [10],14 mm
same,Patient VAS (Pain),"[3]; Visit Three, Mar. 25, 2003, clarithromycin for one month, off steroid about ten days",16 mm
same,Tender/Painful Joints,"[3]; Visit Three, clarithromycin for one month, baseline 3",0
same,Practitioner VAS (Global),[3]; [11],31 mm
same,Patient VAS (Global),[3]; [11],51 mm
